We go through 6 molecules from patent US8252572B2, “Use of islet glucose-6-phosphatase related protein as a diagnostic tool and therapeutic target for autoimmune diabetes” (priority 2003, dated 2012).

The test system of assay [1] is mixed lymphocyte preparations of pre-diabetic 12 week old female NOD mice. Briefly: T-cell proliferative responses to recombinant antigens (3H thymidine). The format is cell-based, NOD mouse. Particulars: for T-cell proliferative response (in words): recombinant antigens as β-galactosidase fusion proteins, NOD lymphocytes. The method, then: Lymphocytes prepared from pancreatic draining lymph nodes were mixed with splenocytes from the same animal and incubated for 3 days (500×10^3 cells) in Click's medium with […] NOD mouse serum 50 μM mercaptoethanol and the indicated recombinant antigens that were generated as fusion proteins with β-galactosidase in the pUEX vector. Cultures were pulsed for 16 h with ^3H thymidine prior to harvest.
T-cell proliferative responses to recombinant IGRP (3-100 μg/ml) were observed from mixed lymphocyte preparations of pre-diabetic 12 week old female NOD mice (SImax=10).

Another assay concerns NY8.3 CD8 T-cell clone. Particulars: cited from earlier work.
Assay [2] relates to CD8 positive cells from the whole pancreas of NOD mice. Briefly: MHC class I tetramer binding to pancreatic mononuclear cells (FACS). The format is cell-based, NOD mouse. An excerpt:
Cells were isolated from collagenase digested mouse pancreas by gradient centrifugation and subject to 3 color FACS analysis using antibodies to CD45, CD8 and PE-streptavidin conjugated tetramers carrying peptides derived from IGRP. The gated (R1) population were 95% CD45 positive and composed of 12.5% CD8 cells.
MHC class I tetramers were generated using the NIH tetramer facility. These were loaded with a series of peptides including the native mouse IGRP peptide (VYLKTNVFL (SEQ ID NO.: 6); peptide C, FIG. 4) corresponding to the NRP-V7 mimeotope (KYNKANVFL (SEQ ID NO.: 7)) that stimulates the NY8.3 CD8 T-cell clone. A procedure was developed for the isolation of mononuclear cells from the whole pancreas of NOD mice yielding approximately 0.5-1×10^6 CD45 positive cells (lymphocytes) per mouse (12-16 wk females) for tetramer binding assays (FIG. 4). The lymphocyte population contained 10-15% CD8 positive cells of which 8% bound the native peptide tetramer. These assays confirm the remarkable finding that a major proportion of the CD8 cells in the NOD pancreas target one specific IGRP epitope. The procedure developed here represents a technical advance on previous tetramer studies of activated NRP reactive T-cell in NOD mice which required up to 40 animals for a single experiment and amplification of islet-derived T-cells for 7-9 days in the presence of IL-2.

For “β-galactosidase: the fusion partner, used as control antigen [reference compound]”, in assay [1], the “T-cell proliferative response (in words)” value is recorded as “minimal response”.

Take “KYNKANVFL (SEQ ID NO.: 7) (artificial Mus sp.) [NRP-V7, mimeotope that stimulates the NY8.3 CD8 T-cell clone]”: the “stimulation of T-cell clone (in words)” value in the assay with NY8.3 CD8 T-cell clone was “stimulates”.

Regarding “VYLKTNVFL (SEQ ID NO.: 6) (listed as Mus sp.) [peptide C, native mouse IGRP peptide, cognate peptide of the NY8.3 clone]”, in assay [2] (K^d tetramer loaded with peptide, pancreatic lymphocytes of 12-16 wk female NOD mice), the “proportion of CD8 positive cells that bound the tetramer” value was found to be 8%. In addition, the “tetramer staining of pancreatic CD8 cells (in words)” value in assay [2] (PE-streptavidin conjugated tetramers carrying peptides derived from IGRP, 3 color FACS, FIG. 4) is listed as “significant proportion bound”.

B1: UGRP: equivalent construct with ubiquitously expressed G6Pase related protein (protein, UniProt Q6NSQ9 1-346, looked up)
Glucose-6-phosphatase 3: MESTLSAGIIMAEALQNRLPGLENMWLWVTFLGDPKNLFQFCFPAAYYASRRLGISVLWITFIAEWLNLVFKWFLFGDRPFWWVHESGYSTQTPIQIHQFPSSCETGPGSPSGHCMITGAALWPVMTAISSQVASRSRSPWVRVIPGLAYCTFLLAVGLSRVFLLAHFPHQVLGGLIVGAALGWLMSPRVPMERELSFYGLTALALMLGASLMYWTLFTLGLDLSWSINLASKWCERPEWVHMDSRPFASLSRDSGSALGLGIALHTPCYAQIRRAHLGNGQKIACFVLAMGLLVFLEWLGYPPQISLFYIFNFLKYTLWPCLVLALVPWVVHTLSDQEAPPIRSS
In the case of B1, in assay [1], the “T-cell proliferative response (in words)” value is recorded as “minimal response”.

B2: G6Pase: equivalent β-galactosidase fusion construct with liver glucose-6-phosphatase (protein, UniProt P35575 1-357, looked up)
Glucose-6-phosphatase …: MEEGMNVLHDFGIQSTHYLQVNYQDSQDWFILVSVIADLRNAFYVLFPIWFHLQEAVGIKLLWVAVIGDWLNLVFKWILFGQRPYWWVLDTDYYSNTSVPLIKQFPVTCETGPGSPSGHAMGTAGVYYVMVTSTLSIFQGKIKPTYRFRCLNVILWLGFWAVQLNVCLSRIYLAAHFPHQVVAGVLSGIAVAETFSHIHSIYNASLKKYFLITFFLFSFAIGFYLLLKGLGVDLLWTLEKAQRWCEQPEWVHIDTTPFASLLKNLGTLFGLGLALNSSMYRESCKGKLSKWLPFRLSSIVASLVLLHVFDSLKPPSQVELVFYVLSFCKSAVVPLASVSVIPYCLAQVLGQPHKKSL
As for B2, the “T-cell proliferative response (in words)” value in assay [1] is recorded as “minimal response”.

B3: recombinant IGRP: recombinant islet glucose-6-phosphatase related protein generated as fusion protein with β-galactosidase in the pUEX vector (protein, UniProt Q9Z186 1-355, looked up)
Glucose-6-phosphatase 2: MDFLHRSGVLIIHHLQEDYRTYYGFLNFMSNVGDPRNIFSIYFPLWFQLNQNVGTKMIWVAVIGDWFNLIFKWILFGHRPYWWIQETEIYPNHSSPCLEQFPTTCETGPGSPSGHAMGSSCVWYVMVTAALSYTISRMEESSVTLHRLTWSFLWSVFWLIQISVCISRVFIATHFPHQVILGVIGGMLVAEAFEHTPGVHMASLSVYLKTNVFLFLFALGFYLLLRLFGIDLLWSVPIAKKWCANPDWIHIDSTPFAGLVRNLGVLFGLGFAINSEMFLRSCQGENGTKPSFRLLCALTSLTTMQLYRFIKIPTHAEPLFYLLSFCKSASIPLMVVALIPYCVHMLMRPGDKKTK
Consider B3, for which the “T-cell proliferative response, SImax” value in assay [1] (recombinant IGRP 3-100 μg/ml, β-galactosidase fusion protein, 3 days culture, 16 h 3H thymidine pulse) is reported as 10.
